Experimental data: ChEMBL document CHEMBL3885861, “Open TG-GATES”

Species on record: Rattus norvegicus
Experiment: Open TG-GATES - Regimen: Daily Repeat
Type: toxicity, organism-based, Sprague-Dawley
Design: regimen Daily Repeat, gender Male, age 6 weeks
Conditions: in vivo, po, route gavage; for APTT / Bas / Eos / Fbg / Hb / Ht / Lym / MCH / MCHC / MCV / Mono / Neu / PT / Plat / RBC / Ret / WBC: tissue Blood; for KIDNEY_L / KIDNEY_R / KIDNEY_TOTAL: tissue Kidney; for LIVER: tissue Liver; for A/G / ALP / ALT / AST / BUN / CRE / Ca / Cl / DBIL / GLC / IP / K / LDH / Na / PL / RALB / TBIL / TC / TG / TP / gamma-GTP: tissue Plasma
[1] = 30 mg/kg, 72 h, dose level Middle, time 3 day
[2] = 30 mg/kg, […], dose level Middle, time 7 day
[3] = 30 mg/kg, […], dose level Middle, time 14 day
[4] = 30 mg/kg, […], dose level Middle, time 28 day
[5] = 100 mg/kg, 72 h, dose level High, time 3 day
[6] = 100 mg/kg, […], dose level High, time 7 day
[7] = 100 mg/kg, […], dose level High, time 14 day
[8] = 100 mg/kg, […], dose level High, time 28 day

## NC(=O)N/N=C/c1ccc([N+](=O)[O-])o1 [NITROFURAZONE]
[1]
  TERMINAL_BW: 221 g
  APTT: 15.2 s
  Bas: 0%
  Eos: 0.8%
  Fbg: 285 mg/dL
  Hb: 12.7 g/dL
  Ht: 38.3%
  Lym: 78.8%
  MCH: 21.6 pg
  MCHC: 33.2%
  MCV: 65 fL
  Mono: 3.2%
  Neu: 16.6%
  PT: 14.2 s
  Plat: 119.4 x10_4/uL
  RBC: 589.8 x10_4/ul
  Ret: 8.5%
  WBC: 86.5 x10_2/uL
  KIDNEY_L: 1 g
  KIDNEY_R: 0.9 g
  KIDNEY_TOTAL: 1.9 g
  LIVER: 11.3 g
  A/G: 0.9
  ALP: 1653.2 IU/L
  ALT: 46.2 IU/L
  AST: 70 IU/L
  BUN: 15.4 mg/dL
  CRE: 0.2 mg/dL
  Ca: 11.4 mg/dL
  Cl: 104.2 meq/L
  DBIL: 0.016 mg/dL
  GLC: 182 mg/dL
  IP: 8 mg/dL
  K: 4.4 meq/L
  LDH: 113.2 IU/L
  Na: 140.6 meq/L
  PL: 164.4 mg/dL
  RALB: 2.5 g/dL
  TBIL: 0.048 mg/dL
  TC: 91.4 mg/dL
  TG: 98.6 mg/dL
  TP: 5.5 g/dL
  gamma-GTP: 1 IU/L
[2]
  TERMINAL_BW: 259.6 g
  APTT: 16.5 s
  Bas: 0%
  Eos: 1%
  Fbg: 267 mg/dL
  Hb: 13.2 g/dL
  Ht: 39.5%
  Lym: 76%
  MCH: 21.1 pg
  MCHC: 33.5%
  MCV: 63.1 fL
  Mono: 2.6%
  Neu: 20.2%
  PT: 14.3 s
  Plat: 120.3 x10_4/uL
  RBC: 625.8 x10_4/ul
  Ret: 7.3%
  WBC: 103.6 x10_2/uL
  KIDNEY_L: 1.1 g
  KIDNEY_R: 1.2 g
  KIDNEY_TOTAL: 2.3 g
  LIVER: 13.3 g
  A/G: 0.8
  ALP: 1619 IU/L
  ALT: 41 IU/L
  AST: 62.6 IU/L
  BUN: 13.8 mg/dL
  CRE: 0.2 mg/dL
  Ca: 11.2 mg/dL
  Cl: 103.6 meq/L
  DBIL: 0.016 mg/dL
  GLC: 181.8 mg/dL
  IP: 7.7 mg/dL
  K: 3.8 meq/L
  LDH: 90.2 IU/L
  Na: 141.8 meq/L
  PL: 155.8 mg/dL
  RALB: 2.6 g/dL
  TBIL: 0.048 mg/dL
  TC: 77.6 mg/dL
  TG: 117.4 mg/dL
  TP: 5.8 g/dL
  gamma-GTP: 1 IU/L
[3]
  TERMINAL_BW: 325.5 g
  APTT: 14.3 s
  Bas: 0%
  Eos: 0.8%
  Fbg: 308.8 mg/dL
  Hb: 13.5 g/dL
  Ht: 41.1%
  Lym: 81.8%
  MCH: 20.8 pg
  MCHC: 32.9%
  MCV: 63.2 fL
  Mono: 2.4%
  Neu: 14.2%
  PT: 14.4 s
  Plat: 117.9 x10_4/uL
  RBC: 650.8 x10_4/ul
  Ret: 6.1%
  WBC: 78.6 x10_2/uL
  KIDNEY_L: 1.3 g
  KIDNEY_R: 1.3 g
  KIDNEY_TOTAL: 2.6 g
  LIVER: 17 g
  A/G: 0.8
  ALP: 1501.8 IU/L
  ALT: 41.8 IU/L
  AST: 63.6 IU/L
  BUN: 18 mg/dL
  CRE: 0.2 mg/dL
  Ca: 11.1 mg/dL
  Cl: 103.6 meq/L
  DBIL: 0.014 mg/dL
  GLC: 193.4 mg/dL
  IP: 7.7 mg/dL
  K: 4.1 meq/L
  LDH: 89.8 IU/L
  Na: 142.2 meq/L
  PL: 169.2 mg/dL
  RALB: 2.8 g/dL
  TBIL: 0.05 mg/dL
  TC: 87.2 mg/dL
  TG: 107.6 mg/dL
  TP: 6.1 g/dL
  gamma-GTP: 1 IU/L
[4]
  TERMINAL_BW: 410.1 g
  APTT: 15.7 s
  Bas: 0.2%
  Eos: 1%
  Fbg: 294 mg/dL
  Hb: 14.3 g/dL
  Ht: 42.2%
  Lym: 82.8%
  MCH: 19.7 pg
  MCHC: 33.8%
  MCV: 58.2 fL
  Mono: 2%
  Neu: 13.6%
  PT: 14.3 s
  Plat: 99 x10_4/uL
  RBC: 727.8 x10_4/ul
  Ret: 4.2%
  WBC: 114.5 x10_2/uL
  KIDNEY_L: 1.6 g
  KIDNEY_R: 1.6 g
  KIDNEY_TOTAL: 3.3 g
  LIVER: 19 g
  A/G: 0.8
  ALP: 1102.6 IU/L
  ALT: 38 IU/L
  AST: 56.4 IU/L
  BUN: 16.4 mg/dL
  CRE: 0.2 mg/dL
  Ca: 10.7 mg/dL
  Cl: 103.2 meq/L
  DBIL: 0.012 mg/dL
  GLC: 182.4 mg/dL
  IP: 7.1 mg/dL
  K: 3.8 meq/L
  LDH: 43.2 IU/L
  Na: 142.8 meq/L
  PL: 163.8 mg/dL
  RALB: 2.8 g/dL
  TBIL: 0.076 mg/dL
  TC: 80.2 mg/dL
  TG: 104.4 mg/dL
  TP: 6.1 g/dL
  gamma-GTP: 1 IU/L
[5]
  TERMINAL_BW: 206.6 g
  APTT: 15 s
  Bas: 0%
  Eos: 1%
  Fbg: 297 mg/dL
  Hb: 12.7 g/dL
  Ht: 38.8%
  Lym: 83.6%
  MCH: 21.5 pg
  MCHC: 32.8%
  MCV: 65.6 fL
  Mono: 2.8%
  Neu: 11.6%
  PT: 14.6 s
  Plat: 102.7 x10_4/uL
  RBC: 593 x10_4/ul
  Ret: 7%
  WBC: 86.2 x10_2/uL
  KIDNEY_L: 0.9 g
  KIDNEY_R: 1 g
  KIDNEY_TOTAL: 1.9 g
  LIVER: 10.9 g
  A/G: 0.9
  ALP: 1305.8 IU/L
  ALT: 41.4 IU/L
  AST: 71.4 IU/L
  BUN: 16 mg/dL
  CRE: 0.2 mg/dL
  Ca: 11 mg/dL
  Cl: 104 meq/L
  DBIL: 0.016 mg/dL
  GLC: 176.4 mg/dL
  IP: 7.8 mg/dL
  K: 4.5 meq/L
  LDH: 67.6 IU/L
  Na: 141 meq/L
  PL: 154.8 mg/dL
  RALB: 2.6 g/dL
  TBIL: 0.068 mg/dL
  TC: 89.6 mg/dL
  TG: 66.8 mg/dL
  TP: 5.5 g/dL
  gamma-GTP: 1 IU/L
[6]
  TERMINAL_BW: 222.5 g
  APTT: 16 s
  Bas: 0%
  Eos: 0.8%
  Fbg: 271.8 mg/dL
  Hb: 13.2 g/dL
  Ht: 38.8%
  Lym: 85.2%
  MCH: 20.6 pg
  MCHC: 34.1%
  MCV: 60.3 fL
  Mono: 2.5%
  Neu: 10.2%
  PT: 14.5 s
  Plat: 106.2 x10_4/uL
  RBC: 643 x10_4/ul
  Ret: 5.5%
  WBC: 113.2 x10_2/uL
  KIDNEY_L: 1.1 g
  KIDNEY_R: 1 g
  KIDNEY_TOTAL: 2.1 g
  LIVER: 11.4 g
  A/G: 0.9
  ALP: 1211 IU/L
  ALT: 32.2 IU/L
  AST: 56.8 IU/L
  BUN: 14 mg/dL
  CRE: 0.2 mg/dL
  Ca: 11 mg/dL
  Cl: 102.5 meq/L
  DBIL: 0.015 mg/dL
  GLC: 162.2 mg/dL
  IP: 7.4 mg/dL
  K: 3.9 meq/L
  LDH: 55 IU/L
  Na: 141.2 meq/L
  PL: 146.8 mg/dL
  RALB: 2.6 g/dL
  TBIL: 0.055 mg/dL
  TC: 87 mg/dL
  TG: 39.5 mg/dL
  TP: 5.6 g/dL
  gamma-GTP: 1 IU/L
[7]
  TERMINAL_BW: 223.7 g
  APTT: 15.4 s
  Bas: 0.2%
  Eos: 0.8%
  Fbg: 318.8 mg/dL
  Hb: 14.1 g/dL
  Ht: 41.5%
  Lym: 86.8%
  MCH: 19.7 pg
  MCHC: 34%
  MCV: 57.9 fL
  Mono: 2.6%
  Neu: 8.8%
  PT: 15.1 s
  Plat: 121 x10_4/uL
  RBC: 720 x10_4/ul
  Ret: 3.8%
  WBC: 108.8 x10_2/uL
  KIDNEY_L: 1.1 g
  KIDNEY_R: 1.1 g
  KIDNEY_TOTAL: 2.2 g
  LIVER: 10.8 g
  A/G: 0.9
  ALP: 975.2 IU/L
  ALT: 27.2 IU/L
  AST: 86.4 IU/L
  BUN: 17.8 mg/dL
  CRE: 0.2 mg/dL
  Ca: 10.5 mg/dL
  Cl: 104.8 meq/L
  DBIL: 0.02 mg/dL
  GLC: 150.2 mg/dL
  IP: 7.9 mg/dL
  K: 3.7 meq/L
  LDH: 99.2 IU/L
  Na: 144 meq/L
  PL: 138.6 mg/dL
  RALB: 2.7 g/dL
  TBIL: 0.078 mg/dL
  TC: 92.6 mg/dL
  TG: 34.6 mg/dL
  TP: 5.9 g/dL
  gamma-GTP: 1.2 IU/L
[8]
  TERMINAL_BW: 311.4 g
  APTT: 16.6 s
  Bas: 0.2%
  Eos: 1%
  Fbg: 368.6 mg/dL
  Hb: 13.9 g/dL
  Ht: 41.3%
  Lym: 85.8%
  MCH: 19.4 pg
  MCHC: 33.5%
  MCV: 57.9 fL
  Mono: 2.8%
  Neu: 9.2%
  PT: 14.3 s
  Plat: 107.6 x10_4/uL
  RBC: 714.8 x10_4/ul
  Ret: 3.8%
  WBC: 116.7 x10_2/uL
  KIDNEY_L: 1.5 g
  KIDNEY_R: 1.5 g
  KIDNEY_TOTAL: 3 g
  LIVER: 14.2 g
  A/G: 0.8
  ALP: 579.8 IU/L
  ALT: 21 IU/L
  AST: 58.6 IU/L
  BUN: 14.8 mg/dL
  CRE: 0.2 mg/dL
  Ca: 10 mg/dL
  Cl: 103.4 meq/L
  DBIL: 0.016 mg/dL
  GLC: 144.6 mg/dL
  IP: 7.5 mg/dL
  K: 3.6 meq/L
  LDH: 51.2 IU/L
  Na: 144.6 meq/L
  PL: 149.6 mg/dL
  RALB: 2.8 g/dL
  TBIL: 0.096 mg/dL
  TC: 104.2 mg/dL
  TG: 36 mg/dL
  TP: 6.2 g/dL
  gamma-GTP: 1.2 IU/L
